One experiment relates to prothrombin time. The experiment can be described thus: Prothrombin time in male rats (Tables III and IV). The format is in vivo, rats (Harlan albino strain). The following applies: five days, group of 5 rats. The protocol: Representative compounds were evaluated for prothrombin time in standard laboratory male rats (Harlan albino strain) of weanling age. A standard laboratory animal diet was fed to one group of 5 rats to serve as a control; other groups of 5 rats received modified diets, each diet being the standard laboratory animal diet modified by the incorporation therein of 0.08 percent of the respective compound. Feeding was continued for five days, at which time a blood sample was taken from each rat and analyzed for prothrombin time. The analytical method was that of A. J. Quick, "The Determination of Prothrombin," 190 Am. J. Med. Sci. 501 (1935): and it was performed on the "Electra 600", a machine available from the Medical Laboratory Automation, Inc. The results are reported in Table III.
Additional evaluations of the effect of representative compounds of prothrombin time were conducted. The procedures were the same as those reported in Examples 30-33 except that the concentration of the respective compound was 0.02 percent.

Experiment [1] concerns coagulation (prothrombin time, activated partial thromboplastin, thrombin clotting time, fibrinogen). Nature of the experiment: Coagulation studies in dogs: clotting times and fibrinogen (Table V). Particulars: for Activated Partial Thromboplastin Time / Fibrinogen Levels / Prothrombin Time / Thrombin Clotting Time: 40 mg./kg. oral on each of 3 successive days, fourth day, per dog. The format is in vivo, dogs (beagles). The procedure:
(§1) Each of 1-methoxy-6-chloro-2-trifluoromethyl-1H-imidazo-(4,5-b)pyridine and 1-hydroxy-6-chloro-2-trifluoromethyl-1H-imidazo(4,5-b)pyridine was evaluated in coagulation studies in dogs (beagles weighing about 10 kilograms each). Two dogs were employed with each compound, one female and one male.
In the first part of the evaluation, a blood sample was taken from each dog prior to any treatment with the respective compound. The sample was citrated and centrifuged for 10-15 minutes to segregate the plasma, which was separated and quick frozen. The dogs were then treated: each dog received 40 mg./kg. of the respective compound on each of 3 successive days; administration was by the oral route. On the fourth day, blood samples were again taken and processed as described above. Throughout the test, the dogs were provided with adequate food and water and otherwise maintained under good conditions. The samples were subsequently thawed and analyzed for prothrombin time activated partial thromboplastin, thrombin clotting time, and fibrinogen levels. The first three analyses were conducted on a "Bioquest Fibrometer", produced by Baltimore Biological Division of Becton and Dickinson at Cockeysville, Maryland 21030, Fibrinogen levels were determined by the method of H. O. Bang, 9 Scand. J. Clin. Lab. Inves. 205 (1957).

The next experiment concerns Prothrombin (II). The experiment can be described thus: Coagulation factor concentration in dogs, factor II (Table VI). The format is in vivo, dogs (beagles). Particulars: 40 mg./kg. oral x 3 days; per dog. The procedure: as §1
(§2) In the second part of the evaluation, a sample was taken from each of the same four dogs prior to any treatment (at the same time as the initial sample for the first part of the evaluation), and the samples were pooled and evaluated for the concentration of individual clotting factors, to serve as a control. Following the treatment described above, a sample was again taken from each dog and individually analyzed in the same manner. The control figure was considered as 100 percent and the scores for the treated dogs were reported as percent of the control figure. Analyses were by the following methods:
Ii f. koller et al., 6 Acta Haem. 1 (1951).

A further experiment relates to Ac Globulin (V). The experiment can be described thus: Coagulation factor concentration in dogs, factor V (Table VI). The format is in vivo, dogs (beagles). Particulars: 40 mg./kg. oral x 3 days; per dog. The protocol:
as §1
(§3) In the second part of the evaluation, a sample was taken from each of the same four dogs prior to any treatment (at the same time as the initial sample for the first part of the evaluation), and the samples were pooled and evaluated for the concentration of individual clotting factors, to serve as a control. Following the treatment described above, a sample was again taken from each dog and individually analyzed in the same manner. The control figure was considered as 100 percent and the scores for the treated dogs were reported as percent of the control figure.

A further experiment relates to Proconvertin (VII). Nature of the experiment: Coagulation factor concentration in dogs, factor VII (Table VI). It counts as in vivo, dogs (beagles). Particulars: 40 mg./kg. oral x 3 days; per dog. The procedure:
as §1, §2
Vii f. bachman et al., 1 Thrombosis Diathes. Haemorrh. 169 (1957)

Another experiment relates to AHG (VIII). The experiment can be described thus: Coagulation factor concentration in dogs, factor VIII (Table VI). The format is in vivo, dogs (beagles). The following applies: 40 mg./kg. oral x 3 days; per dog. The procedure:
as §1, §2
Viii r. d. langdell et al., 41 J. Lab. Clin. Med. 637 (1953).

The next experiment deals with PTC (IX). The experiment can be described thus: Coagulation factor concentration in dogs, factor IX (Table VI). It counts as in vivo, dogs (beagles). The following applies: 40 mg./kg. oral x 3 days; per dog. The protocol: as §1, §2
Ix w. f. stapp, 10 Scand. J. Clin. Lab. Inves. 169 l (1958).

The subject of another experiment is Stuart Factor (X). Nature of the experiment: Coagulation factor concentration in dogs, factor X (Table VI). The format is in vivo, dogs (beagles). Particulars: 40 mg./kg. oral x 3 days; per dog. The procedure:
as §1, §3

A further experiment has as its system PTA (XI). The experiment can be described thus: Coagulation factor concentration in dogs, factor XI (Table VI). It counts as in vivo, dogs (beagles). Particulars: 40 mg./kg. oral x 3 days; per dog. The protocol: as §1, §2
Xi s. i. rapaport, 57 J. Lab. Clin. Med. 771 (1961).

For the next experiment, the system named is Hageman Factor (XII). Nature of the experiment: Coagulation factor concentration in dogs, factor XII (Table VI). It counts as in vivo, dogs (beagles). The following applies: 40 mg./kg. oral x 3 days; per dog. The procedure:
as §1, §2
Xii o. d. ratnoff in Thrombosis and Bleading Disorders, ed. by N. U. Bang et al. (G. Thieme, and Academic Press, N.Y., 1971), pages 214-221.

Each structure is given as a SMILES string. Where “and” joins values, the source holds several entries; their conditions need not be identical. Identical values can stand only once.

For the molecule `COn1c(C(F)(F)F)nc2ncc(Cl)cc21` [1-methoxy-6-chloro-2-trifluoromethyl-1H-imidazo(4,5-b)pyridine], in the experiment with prothrombin time (0.02 percent in diet), the Deaths entry was “none” and the “Range of Prothrombin Time” value is 19.5 to 27.5 s. Further, in the experiment on prothrombin time (0.08 percent in diet), the Deaths entry was “none” and the “Range of Prothrombin Time” value lay in the range of 50.1 to 109.1 s. Besides, in [1], the “Activated Partial Thromboplastin Time” value was 18.9 s and 26.2 s; the “Fibrinogen Levels” value was 236 mg% and 222 mg%; the “Prothrombin Time” value was 12.2 s and 12.9 s; the “Thrombin Clotting Time” value is 10.5 s and 13.9 s. In addition, the “Prolongation of activated partial thromboplastin time (in words)” value in [1] (dogs, 40 mg./kg. oral x 3 days) is “prolongs activated partial thromboplastin time”. For the same molecule, the “Coagulation Factor, Prothrombin (II)” value in the experiment on Prothrombin (II) is 39 % of Control. The “Coagulation Factor, Ac Globulin (V)” value in the experiment with Ac Globulin (V) was 100 % of Control. Also, in the experiment with Proconvertin (VII), the “Coagulation Factor, Proconvertin (VII)” value was 9 % of Control and 14 % of Control. Also, the “Coagulation Factor, AHG (VIII)” value in the experiment on AHG (VIII) was 124 % of Control and 122 % of Control. In addition, the “Coagulation Factor, PTC (IX)” value with PTC (IX) was 26 % of Control and 35 % of Control. For the same molecule, the “Coagulation Factor, Stuart Factor (X)” value in the experiment on Stuart Factor (X) was 4 % of Control and 6 % of Control. Further, the “Coagulation Factor, PTA (XI)” value with PTA (XI) is 224 % of Control and 200 % of Control. Moreover, in the experiment on Hageman Factor (XII), the “Coagulation Factor, Hageman Factor (XII)” value is 25 % of Control and 43 % of Control.
In the case of `On1c(C(F)(F)F)nc2ncc(Cl)cc21` [1-hydroxy-6-chloro-2-trifluoromethyl-1H-imidazo(4,5-b)pyridine], in experiment [1], the “Activated Partial Thromboplastin Time” value was 22.9 s and 16.0 s; the “Fibrinogen Levels” value is 223 mg% and 218 mg%; the “Prothrombin Time” value was 9.9 s and 6.9 s; the “Thrombin Clotting Time” value was 12.2 s and 12.0 s. The “Coagulation Factor, Prothrombin (II)” value in the experiment on Prothrombin (II) is on record as 70 % of Control. Also, in the experiment with Ac Globulin (V), the “Coagulation Factor, Ac Globulin (V)” value is 100 % of Control. Also, in the experiment on Proconvertin (VII), the “Coagulation Factor, Proconvertin (VII)” value was 11 % of Control and 20 % of Control. For the same molecule, the “Coagulation Factor, AHG (VIII)” value in the experiment on AHG (VIII) was 94 % of Control and 100 % of Control. For the same molecule, the “Coagulation Factor, PTC (IX)” value with PTC (IX) was 45 % of Control and 66 % of Control. Also, the “Coagulation Factor, Stuart Factor (X)” value in the experiment on Stuart Factor (X) is 11 % of Control and 25 % of Control. The “Coagulation Factor, PTA (XI)” value with PTA (XI) was 128 % of Control and 140 % of Control. Further, in the experiment on Hageman Factor (XII), the “Coagulation Factor, Hageman Factor (XII)” value was 37 % of Control and 18 % of Control.

These data come from patent US3941882A, “Rodenticidal imidazo-pyridines” (priority 1974, dated 1976).
